# According to patent US10538567B2, “Compounds as peptidic trigonal GLP1/glucagon/GIP receptor agonists” (priority 2016, dated 2020):
# Numbered stars: 1 amine (or outer) side, 2 acyl side, 3 side chain; on linkers, the order of the positions; unused ones are H or OH. Square brackets hold non-standard residues; d marks the D form. Side chains are listed from the residue outwards. Peptide text beside a SMILES is read from it. * marks the point of attachment. γGlu = O=C(O)[C@H](CCC(=O)[*:2])N[*:1]; Stearoyl = CCCCCCCCCCCCCCCCCC(=O)*; Palmitoyl = CCCCCCCCCCCCCCCC(=O)*; AEEA = NCCOCCOCC(=O)O; Aib = CC(C)(N)C(=O)O
# Test system: not listed separately
# Assay: Thioflavin T (ThT) assay for physical stability (fibrillation)
# Format: physicochemical
# Settings: 3 mg/ml, 100 mM acetate pH 4.5 with m-cresol, 37° C. shaking
# Source text: Low physical stability of a peptide solution may lead to amyloid fibril formation, which is observed as well-ordered, thread-like macromolecular structures in the sample, which eventually may lead to gel formation. Thioflavin T (ThT) is widely used to visualize and quantify the presence of misfolded protein aggregates. [Biancalana et al. (2010) Biochimica et Biophysica Acta. 1804 (7): 1405-1412]. […] Enzymol. 309, 274-284]. The time course for fibril formation often follows the characteristic shape of a sigmoidal curve and can be separated into three regions: a lag phase, a fast growth phase, and a plateau phase.
# The typical fibril formation process starts with the lag phase in which the amount of partially folded peptide turned into fibrils is not significant enough to be detected. The lag-time corresponds to the time the critical mass of the nucleus is built. Afterwards, a drastic elongation phase follows and fibril concentration increases rapidly.
# Investigations were carried out to determine fibrillation tendencies under stress conditions by shaking at 37° C. within Fluoroskan Ascent FL.
# For the tests in Fluoroskan Ascent FL, 200 μL sample were placed into a 96 well mictrotiter plate PS, flat bottom, Greiner Fluotrac No. 655076. Plates were sealed with Scotch Tape (Quiagen). Samples were stressed by continuous cycles of 10 s shaking at 960 rpm and 50 s rest period at 37° C. The kinetic was monitored by measuring fluorescence intensity every 20 minutes.
# Peptides were diluted in a buffer system to a final concentration of 3 mg/ml. 20 μL of a 10.1 mM ThT solution in H2O were added to 2 mL of peptide solution to receive a final concentration of 100 μM ThT. For each sample eight replicates were tested.
# Tht buffer system A) 100 mM Acetate pH 4.5 including m-cresol (100 mM Natriumacetat trihydrat, pH adjustment using 2N CH3COOH, 2.7 mg/mL m-cresol) Tht buffer system B) 100 mM citrate buffer pH 6.0
# Lag time in hours in Thioflavin T (ThT) assay of peptide samples was determined in ThT buffer system A as described in Methods.
row,Lag time before increase [h],Compound
1,>45,"CCCCCCCCCCCCCCCC(=O)N[C@@H](CCC(=O)NCCCC[C@H](NC(=O)[C@H](CC(C)C)NC(=O)[C@H](CCCCN)NC(=O)[C@H](CO)NC(=O)[C@H](CC(C)C)NC(=O)[C@H](CC(=O)O)NC(=O)[C@H](CO)NC(=O)[C@@H](NC(=O)[C@H](Cc1ccccc1)NC(=O)[C@@H](NC(=O)CNC(=O)[C@H](Cc1c[nH]cn1)NC(=O)C(C)(C)NC(=O)[C@@H](N)Cc1c[nH]cn1)[C@@H](C)O)[C@@H](C)O)C(=O)N[C@@H](CCC(=O)O)C(=O)N[C@@H](CCC(=O)O)C(=O)N[C@@H](CCC(N)=O)C(=O)N[C@@H](CCCNC(=N)N)C(=O)N[C@@H](CCC(N)=O)C(=O)NC(C)(C)C(=O)N[C@@H](CCC(=O)O)C(=O)N[C@@H](Cc1ccccc1)C(=O)N[C@H](C(=O)N[C@@H](CCC(=O)O)C(=O)N[C@@H](Cc1c[nH]c2ccccc12)C(=O)N[C@@H](CC(C)C)C(=O)N[C@@H](CCCCN)C(=O)N[C@@H](C)C(=O)NCC(=O)NCC(=O)N1CCC[C@H]1C(=O)N1CCC[C@H]1C(=O)N[C@@H](CO)C(=O)NC(C)(C)C(=O)N[C@@H](CCCCN)C(=O)N1CCC[C@H]1C(=O)N1CCC[C@H]1C(=O)N1CCC[C@H]1C(=O)N[C@@H](CCCCN)C(N)=O)[C@@H](C)CC)C(=O)O [SEQ ID NO: 18, H-Aib-H-G-T-F-T-S-D-L-S-K-L-K[gGlu-Palm]-E-E-Q-R-Q-Aib-E-F-I-E-W-L-K-A-G-G-P-P-S-Aib-K-P-P-P-K-NH2]"
2,>45,"CCCCCCCCCCCCCCCCCC(=O)N[C@@H](CCC(=O)NCCCC[C@H](NC(=O)[C@H](CC(C)C)NC(=O)[C@H](CCCCN)NC(=O)[C@H](CO)NC(=O)[C@H](CC(C)C)NC(=O)[C@H](CC(=O)O)NC(=O)[C@H](CO)NC(=O)[C@@H](NC(=O)[C@H](Cc1ccccc1)NC(=O)[C@@H](NC(=O)CNC(=O)[C@H](Cc1c[nH]cn1)NC(=O)C(C)(C)NC(=O)[C@@H](N)Cc1c[nH]cn1)[C@@H](C)O)[C@@H](C)O)C(=O)N[C@@H](CCC(=O)O)C(=O)N[C@@H](CCC(=O)O)C(=O)N[C@@H](CCC(N)=O)C(=O)N[C@@H](CCCNC(=N)N)C(=O)N[C@@H](CCC(N)=O)C(=O)NC(C)(C)C(=O)N[C@@H](CCC(=O)O)C(=O)N[C@@H](Cc1ccccc1)C(=O)N[C@H](C(=O)N[C@@H](CCC(=O)O)C(=O)N[C@@H](Cc1c[nH]c2ccccc12)C(=O)N[C@@H](CC(C)C)C(=O)N[C@@H](CCCCN)C(=O)N[C@@H](C)C(=O)NCC(=O)NCC(=O)N1CCC[C@H]1C(=O)N1CCC[C@H]1C(=O)N[C@@H](CO)C(=O)NC(C)(C)C(=O)N[C@@H](CCCCN)C(=O)N1CCC[C@H]1C(=O)N1CCC[C@H]1C(=O)N1CCC[C@H]1C(=O)N[C@@H](CCCCN)C(N)=O)[C@@H](C)CC)C(=O)O [SEQ ID NO: 19, H-Aib-H-G-T-F-T-S-D-L-S-K-L-K[gGlu-Stea]-E-E-Q-R-Q-Aib-E-F-I-E-W-L-K-A-G-G-P-P-S-Aib-K-P-P-P-K-NH2] (H-H[Aib]HGTFTSDLSKLK([γGlu-Stearoyl])EEQRQ[Aib]EFIEWLKAGGPPS[Aib]KPPPK-NH2)"

# Test system: female diabetic db/db mice
# Assay: Acute effects after s.c. treatment on blood glucose in non-fasting female diabetic db/db mice
# Format: in vivo
# Settings: single 30 μg/kg s.c.
# Procedure: Female healthy, lean BKS.Cg-(lean)/OlaHsd and diabetes-prone, obese BKS.Cg-+Lepr^db/+Lepr^db/OlaHsd mice were ordered group housed from Envigo RMS Inc., shipped group housed and remained group housed in shoebox caging with wood chip bedding until day 15 of the predose phase. At the study start mice were approximately 12 weeks old.
# Mice were housed under vivarium conditions including a 12 h light/dark cycle (light phase 04:00 AM-4:00 PM), room temperatures between 23-26° C. and a relative humidity between 30-70%. All animals had free access to water and Purina Fomulab Diet 5008.
# On predose day 9 blood glucose and body mass (approximately between 08:00-10:00 AM) as well as HbA1c measurements were performed. On day 15 of the predose phase animals were assigned to treatment groups (n=8) and to new cages to match mean HbA1c and body masses between all db/db groups. An age-matched lean group was included in the study as a healthy, lean reference.
# Prior to day 1 of the dosing phase, the test article was diluted with Phosphate Buffered Saline (PBS, Gibco, without CaCl2 and MgCl2) to a concentration of 1 mg/mL and aliquots of this stock solution were stored at approximately ≤−60° C. On day 1 of the dosing phase the stock aliquot was thawed and the injected test article solution was prepared fresh by diluting it with PBS to achieve the desired concentration.
# On Day 1 of the dosing phase db/db mice were either treated once with a s.c. injection of PBS-vehicle or 30 μg/kg test article. The lean reference group was treated once with a s.c. injection of PBS-vehicle. The dosing was initiated and completed between 08:00 and 10:00 AM. The applied volume was 5 ml/kg and the dose was adjusted to the most recent body mass recording of each individual.
# Animals had unlimited access to water and feed during the experiment. On day 1 of the dosing phase approximately 5 μL of blood were collected via tail clips at minute −30 and 0 prior to any other inlife activities. At minute 0 mice received a s.c. dose of either PBS-vehicle or 30 μg/kg test article. Further blood samples were harvested at hour 0.25, 0.5, 1, 1.5, 2, 3, 4, 6, 8, and 24 post-dose. Glucose measurements were performed in whole blood using AlphaTRAK glucometers. If the glucose concentrations of two measurements differed by more than 20 mg/dL a third value was recorded. The Area Under the Curve (AUC) for blood glucose was calculated via the trapezoid method and for the duration of the 24 post-dose hours.
# In the Figures data are depicted as means±SEM. […] A One Way Analysis of Variance and multiple comparisons (Dunnett's Method) were performed comparing the group of diabetic, obese db/db vehicle mice (n=8) with each diabetic, obese db/db test article treated mice (n=8). […] Non-diabetic, lean-vehicle group data are depicted in the Figures serving as a reference dataset for the non-obese, non-diabetic state.
row,Compound,mean blood glucose concentration 24 hours post-dose relative to baseline
1,H-Aib-H-G-T-F-T-S-D-L-S-K-L-K[gGlu-gGlu-AEEA-Palm]-E-E-Q-R-Q-Aib-E-F-I-E-W-L-K-A-G-G-P-P-S-Aib-K-P-P-P-K-NH2 (H-H[Aib]HGTFTSDLSKLK([γGlu-γGlu-AEEA-Palmitoyl])EEQRQ[Aib]EFIEWLKAGGPPS[Aib]KPPPK-NH2) [SEQ ID NO: 26],at or close to baseline
